In patent US11400081B2, “Compounds” (The University of Sheffield, priority 2017, dated 2022):
Counter-ions that a name gives are not always drawn. No end group written: not given here.

Biological target: T1, AM2 receptor (CALCRL+RAMP3) (Homo sapiens, UniProt O60896+Q16602)
T1 construct: host or cells: 1321N1
Assay: AM2 receptor inhibition, LANCE TR-FRET cAMP agonist-antagonist competition assay
Assay type: cell-based
Conditions: inhibition of AM induced cAMP activation; 1321N1 cells transfected with CALCRL+RAMP3; read-out: AM2 pIC50 (converted)

T1 sequence (Q16602 23-461): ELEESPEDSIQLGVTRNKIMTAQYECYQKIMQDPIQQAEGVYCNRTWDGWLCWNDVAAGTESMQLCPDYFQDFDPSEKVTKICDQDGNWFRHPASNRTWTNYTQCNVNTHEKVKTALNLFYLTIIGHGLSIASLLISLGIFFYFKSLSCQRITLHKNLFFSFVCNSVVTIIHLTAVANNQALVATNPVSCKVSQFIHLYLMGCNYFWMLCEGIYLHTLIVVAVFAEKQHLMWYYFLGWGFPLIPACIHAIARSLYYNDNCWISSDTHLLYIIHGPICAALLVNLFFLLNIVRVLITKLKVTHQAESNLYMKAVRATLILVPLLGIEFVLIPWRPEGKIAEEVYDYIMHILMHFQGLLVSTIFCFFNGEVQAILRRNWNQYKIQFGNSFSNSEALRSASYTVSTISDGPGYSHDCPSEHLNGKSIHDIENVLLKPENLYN
T1 sequence (O60896 24-148): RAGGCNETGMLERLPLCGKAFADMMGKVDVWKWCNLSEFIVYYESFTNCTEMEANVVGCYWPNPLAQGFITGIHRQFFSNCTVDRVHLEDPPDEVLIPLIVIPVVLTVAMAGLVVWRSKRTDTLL

In order of rising IC50:
1. CNCc1ccccc1CN(CC(=O)Nc1ccc2c(c1)C[C@@]1(C2)C(=O)Nc2ncccc21)C(=O)C1(C(F)(F)F)CCCC1 [Example 94, N-[[2-(methylaminomethyl)phenyl]methyl]-N-[2-oxo-2-[[(3R)-2-oxospiro[1H-pyrrolo[2,3-b]pyridine-3,2′-indane]-5′-yl]amino]ethyl]-1-(trifluoromethyl)cyclopentanecarboxamide 2,2,2-trifluoroacetate]  17.8 nM
2. CCC1(C(=O)N(CC(=O)Nc2ccc3c(c2)C[C@@]2(C3)C(=O)Nc3ncccc32)Cc2ccccc2CNC)CCOCC1 [Example 98, 4-Ethyl-N-[[2-(methylaminomethyl)phenyl]methyl]-N-[2-oxo-2-[[(3R)-2-oxospiro[1H-pyrrolo [2,3-b]pyridine-3,2′-indane]-5′-yl]amino]ethyl]tetrahydropyran-4-carboxamide 2,2,2 trifluoroacetate]  21.4 nM
3. CNCc1ccccc1CN(CC(=O)Nc1ccc2c(c1)CC1(C2)C(=O)Nc2ncccc21)C(=O)C(C)(C)c1ccc(CN2CCNCC2)cc1 (stereo not drawn) [Example 91, 2-Methyl-N-(2-((methylamino)methyl)benzyl)-N-(2-oxo-2-((2′-oxo-1,1′,2′,3-tetrahydrospiro[indene-2,3′-pyrrolo[2,3-b]pyridin]-5-yl)amino)ethyl)-2-(4-(piperazin-1-ylmethyl)phenyl)propanamide]  24 nM
4. CNCc1ccccc1CN(CC(=O)Nc1cc2c(cn1)CC1(C2)C(=O)Nc2ncccc21)C(=O)C(C)(C)C (stereo not drawn) [Example 103, N-(2-((Methylamino)methyl)benzyl)-N-(2-oxo-2-((2′-oxo-1′,2′,5,7-tetrahydrospiro[cyclopenta[c]pyridine-6,3′-pyrrolo[2,3-b]pyridin]-3-yl)amino)ethyl)pivalamide]  24 nM
5. CNCc1ccccc1CN(CC(=O)Nc1ccc2c(c1)C[C@@]1(C2)C(=O)Nc2ncccc21)C(=O)C(C)(C)F [Example 95, (R)-2-Fluoro-2-methyl-N-(2-((methylamino)methyl)benzyl)-N-(2-oxo-2-((2′-oxo-1,1′,2′,3-tetrahydrospiro[indene-2,3′-pyrrolo[2,3-b]pyridin]-5-yl)amino)ethyl)propanamide 2,2,2-trifluoroacetate]  28.8 nM
6. CC(C)(C)C(=O)N(CC(=O)Nc1ccc2c(c1)C[C@@]1(C2)C(=O)Nc2ncccc21)C1CNCc2ccccc21 (stereo partly drawn) [Example 101, 2,2-Dimethyl-N-[2-oxo-2-[(2-oxospiro[1H-pyrrolo[2,3-b]pyridine-3,2′-indane]-5′-yl)amino]ethyl]-N-(1,2,3,4-tetrahydroisoquinolin-4-yl)propanamide 2,2,2-trifluoroacetate]  39.8 nM
7. CNCc1ccccc1CN(CC(=O)Nc1ccc2c(c1)C[C@@]1(C2)C(=O)Nc2ncccc21)C(=O)C(C)(C)C(F)(F)F [Example 96, 3,3,3-trifluoro-2,2-dimethyl-N-[[2-(methylaminomethyl)phenyl]methyl]-N-[2-oxo-2-[[(3R)-2-oxospiro[1H-pyrrolo[2,3-b]pyridine-3,2′-indane]-5′-yl]amino]ethyl]propanamide 2,2,2-trifluoroacetate]  49 nM
8. CNCc1ccccc1CN(CC(=O)Nc1cnc2c(c1)CC1(C2)C(=O)Nc2ncccc21)C(=O)C(C)(C)C (stereo not drawn) [Example 105, N-(2-((methylamino)methyl)benzyl)-N-(2-oxo-2-((2′-oxo-1′,2′,5,7-tetrahydrospiro[cyclopenta[b]pyridine-6,3′-pyrrolo[2,3-b]pyridin]-3-yl)amino)ethyl)pivalamide 2,2,2-trifluoroacetate]  50.1 nM
9. CNCc1ccccc1CN(CC(=O)Nc1ccc2c(c1)C[C@@]1(C2)C(=O)Nc2ncccc21)C(=O)C(C)(C)CC(F)(F)F [Example 97, 4,4,4-Trifluoro-2,2-dimethyl-N-[[2-(methylaminomethyl)phenyl]methyl]-N-[2-oxo-2-[[(3R)-2-oxospiro[1H-pyrrolo[2,3-b]pyridine-3,2′-indane]-5′-yl]amino]ethyl]butanamide 2,2,2-trifluoroacetate]  60.3 nM
10. CNCc1ccccc1CN(CC(=O)Nc1ccc2c(c1)C[C@@]1(C2)C(=O)Nc2ncccc21)C(=O)C12CC3CC(CC(C3)C1)C2 [Example 92, N-[[2-(methylaminomethyl)phenyl]methyl]-N-[2-oxo-2-[[(3R)-2-oxospiro[1H-pyrrolo[2,3-b]pyridine-3,2′-indane]-5′-yl]amino]ethyl]adamantane-1-carboxamide 2,2,2-trifluoroacetate]  79.4 nM
11. CNCc1ccccc1CN(CC(=O)Nc1ccc2c(n1)CC1(C2)C(=O)Nc2ncccc21)C(=O)C(C)(C)C (stereo not drawn) [Example 104, N-(2-((methylamino)methyl)benzyl)-N-(2-oxo-2-((2′-oxo-1′,2′,5,7-tetrahydrospiro[cyclopenta[b]pyridine-6,3′-pyrrolo[2,3-b]pyridin]-2-yl)amino)ethyl)pivalamide]  151 nM
12. NCc1ccccc1CN(CC(=O)Nc1ccc2c(c1)C[C@@]1(C2)C(=O)Nc2ncccc21)C(=O)C1(C(F)(F)F)CC1 [Example 99, N-[[2-(Aminomethyl)phenyl]methyl]-N-[2-oxo-2-[(2-oxospiro[1H-pyrrolo[2,3-b]pyridine-3,2′-indane]-5′-yl)amino]ethyl]-1-(trifluoromethyl)cyclopropylcarboxamide 2,2,2-trifluoroacetate]  245 nM
13. CNCc1ccccc1CN(CC(=O)Nc1ccc2c(c1)C[C@@]1(C2)C(=O)Nc2ncccc21)C(=O)C12CC(NC(C)=O)(C1)C2 [Example 100, 3-Acetamido-N-[[2-(methylaminomethyl)phenyl]methyl]-N-[2-oxo-2-[[(3R)-2-oxospiro[1H-pyrrolo[2,3-b]pyridine-3,2′-indane]-5′-yl]amino]ethyl]bicyclo[1.1.1]pentane-1-carboxamide 2,2,2-trifluoroacetate]  309 nM
14. CNCc1ccccc1CN(CC(=O)Nc1ccc2c(c1)CC1(C2)C(=O)Nc2ncccc21)C(=O)N1CCC2(CCNCC2)C1 (stereo not drawn) [Example 90, N-(2-((Methylamino)methyl)benzyl)-N-(2-oxo-2-((2′-oxo-1,1′,2′,3-tetrahydrospiro[indene-2,3′-pyrrolo[2,3-b]pyridin]-5-yl)amino)ethyl)-2,8-diazaspiro[4.5]decane-2-carboxamide]  501 nM

Test system: human pancreatic cancer cells
Assay: not given
Conditions: local injection directly into tumours, pancreatic cancer model; cited from earlier work

In the case of “AM22-52: "the AM peptide antagonist (AM22-52)"; "peptide and antibody AM2 receptor inhibitors are known such as AM22-52" (TVQKLAHQIYQFTDKDKDNVAPRSKISPQGY; ends and bridges not checked; UniProt P35318 116-146, looked up, fragment)”, the “tumour size compared to controls” value is listed as “reduced tumour size significantly”.
